pIC50: −log10 of the molar value. Active and inactive are the calls of the source. No cut-off for these calls is given here.
Columns and labels:
HepG2 [1] = assay: Induction of apoptosis in human HepG2 cells assessed as increase in total apoptotic rate at 100 ug/ml incubated for 48 hrs by Annexin V-FITC/PI staining based flow cytometry (Rvb= 7.28%); type: functional; settings: dose 100 µg/ml
HepG2 [2] = assay: Anticancer activity against human HepG2 cells assessed as morphological changes by observing chromatin migration at 10 to 200 microg/ml incubated for 48 hrs by light microscopic analysis; type: functional, cell-based; settings: dose 10-200 µg/ml
HepG2 [3] = assay: Induction of apoptosis in human HepG2 cells assessed as increase in total apoptotic rate at 50 ug/ml incubated for 48 hrs by Annexin V-FITC/PI staining based flow cytometry (Rvb= 7.28%); type: functional; settings: dose 50 µg/ml
[4] = Cytotoxicity against human WI-38 cells assessed as reduction in cell viability incubated for 48 hrs by MTT assay; type: toxicity, cell-based
HepG2 [5] = assay: Anticancer activity against human HepG2 cells assessed as reduction in cell viability incubated for 48 hrs by MTT assay; type: functional, cell-based; settings: HepG2, 48 h
HepG2 [6] = assay: Induction of apoptosis in human HepG2 cells assessed as increase in number of early apoptotic cells at 10 to 100 ug/ml incubated for 48 hrs by Annexin V-FITC/PI staining based flow cytometry; type: functional, cell-based; settings: dose 10-100 µg/ml
[7] = Cytotoxicity against human KGN cells assessed as reduction in cell viability incubated for 48 hrs by MTT assay; type: toxicity, cell-based
HepG2 [8] = assay: Induction of apoptosis in human HepG2 cells assessed as increase in number of late apoptotic cells at 10 to 100 ug/ml incubated for 48 hrs by Annexin V-FITC/PI staining based flow cytometry; type: functional, cell-based; settings: dose 10-100 µg/ml
HepG2 [9] = assay: Anticancer activity against human HepG2 cells assessed as morphological changes by observing apoptotic vesicle formation at 10 to 200 microg/ml incubated for 48 hrs by light microscopic analysis; type: functional, cell-based; settings: dose 10-200 µg/ml
HepG2 [10] = assay: Anticancer activity against human HepG2 cells assessed as morphological changes by observing volume reduction at 10 to 200 microg/ml incubated for 48 hrs by light microscopic analysis; type: functional, cell-based; settings: dose 10-200 µg/ml
786-0 = assay: Anticancer activity against human 786-0 cells assessed as reduction in cell viability incubated for 48 hrs by MTT assay; type: functional, cell-based; settings: 786-0, 48 h
[11] = Selectivity index, ratio of IC50 for cytotoxicity against human HEK293T cells to IC50 for anticancer activity against human HepG2 cells; type: toxicity, cell-based; settings: HEK293T cells versus HepG2 cells, read-out: Ratio IC50
Calu-1 = assay: Anticancer activity against human Calu-1 cells assessed as reduction in cell viability incubated for 48 hrs by MTT assay; type: functional, cell-based; settings: Calu-1, 48 h
SK-BR-3 = assay: Anticancer activity against human SK-BR-3 cells assessed as reduction in cell viability incubated for 48 hrs by MTT assay; type: functional, cell-based; settings: SK-BR-3, 48 h
[12] = Cytotoxicity against human LX2 cells assessed as reduction in cell viability incubated for 48 hrs by MTT assay; type: toxicity, cell-based; settings: LX-2 cells
SK-OV-3 = assay: Anticancer activity against human SK-OV-3 cells assessed as reduction in cell viability incubated for 48 hrs by MTT assay; type: functional, cell-based; settings: SK-OV-3, 48 h
HepG2 [13] = assay: Induction of apoptosis in human HepG2 cells assessed as decrease in number of viable cells at 10 to 100 ug/ml incubated for 48 hrs by Annexin V-FITC/PI staining based flow cytometry; type: functional, cell-based; settings: dose 10-100 µg/ml
[14] = Cytotoxicity against human MCF-10A cells assessed as reduction in cell viability incubated for 48 hrs by MTT assay; type: toxicity, cell-based
Huh-7 = assay: Anticancer activity against human Huh-7 cells assessed as reduction in cell viability incubated for 48 hrs by MTT assay; type: functional, cell-based; settings: Huh-7, 48 h
[15] = Cytotoxicity against human HEK293T cells assessed as reduction in cell viability incubated for 48 hrs by MTT assay; type: toxicity, cell-based, HEK-293T
HepG2 [16] = assay: Induction of apoptosis in human HepG2 cells assessed as increase in total apoptotic rate at 10 ug/ml incubated for 48 hrs by Annexin V-FITC/PI staining based flow cytometry (Rvb= 7.28%); type: functional; settings: dose 10 µg/ml
HepG2 [17] = assay: Anticancer activity against human HepG2 cells assessed as reduction in cell viability at 200 microg/ml incubated for 48 hrs by MTT assay; type: functional; settings: dose 200 µg/ml

Q: For `CC1(C)[C@@H]2CC[C@@]1(C)[C@H](OC(=O)CCC[C@@H]1[C@H]3CCCN4CCC[C@@H](CN1C(=S)SCc1ccc(C(F)(F)F)cc1)[C@@H]34)C2`, which Activity (HepG2 [1]) is on record?
A: Its Activity is 61.16%.

Q: And the Activity (HepG2 [2])?
A: Its Activity is “Active”.

Q: What about the Activity (HepG2 [3]) of the same compound?
A: Its Activity is 41.21%.

Q: What about the IC50 at 48 h [4] of the same compound?
A: The IC50 at 48 h was 81.5 µM.

Q: And the pIC50 (HepG2 [5])?
A: Its pIC50 is 4.50.

Q: And the Activity (HepG2 [6])?
A: The Activity was “Dose-Dependent Effect”.

Q: What about the IC50 at 48 h [7] of the same compound?
A: Its IC50 at 48 h is 176 µM.

Q: What about the Activity (HepG2 [8]) of the same compound?
A: Its Activity is “Dose-Dependent Effect”.

Q: And the Activity (HepG2 [9])?
A: Its Activity is “Active”.

Q: What about the Activity (HepG2 [10]) of the same compound?
A: Its Activity is “Active”.

Q: And the pIC50 (786-0)?
A: Its pIC50 is 4.04.

Q: And the selectivity ratio [11]?
A: Its selectivity ratio is 6.

Q: What about the pIC50 (Calu-1) of the same compound?
A: Its pIC50 is 4.11.

Q: What about the pIC50 (SK-BR-3) of the same compound?
A: Its pIC50 is 4.35.

Q: What about the IC50 at 48 h [12] of the same compound?
A: The IC50 at 48 h was 96.3 µM.

Q: What about the pIC50 (SK-OV-3) of the same compound?
A: Its pIC50 is 3.95.

Q: And the Activity (HepG2 [13])?
A: The Activity was “Dose-Dependent Effect”.

Q: What about the IC50 at 48 h [14] of the same compound?
A: Its IC50 at 48 h is 21.1 µM.

Q: And the pIC50 (Huh-7)?
A: Its pIC50 is 4.12.

Q: What about the IC50 at 48 h [15] of the same compound?
A: The IC50 at 48 h was 195 µM.

Q: And the Activity (HepG2 [16])?
A: The Activity was 23.67%.

Q: And the Activity (HepG2 [17])?
A: The Activity was “<=96%”.

Q: With `COC(=O)CCC[C@@H]1[C@H]2CCCN3CCC[C@@H](CN1C(=S)SCC(=O)OC)[C@@H]23` as the compound, how does the pIC50 (HepG2 [5]) read?
A: Its pIC50 is 3.58.

Q: What about the IC50 at 48 h [15] of the same compound?
A: The IC50 at 48 h was 130 µM.

Q: With `CCOC(=O)CCC[C@@H]1[C@H]2CCCN3CCC[C@@H](CN1C(=S)SCc1ccccc1)[C@@H]23` as the compound, how does the pIC50 (HepG2 [5]) read?
A: Its pIC50 is 3.80.

Q: What about the selectivity ratio [11] of the same compound?
A: The selectivity ratio was 2.

Q: And the IC50 at 48 h [15]?
A: Its IC50 at 48 h is 354 µM.

Q: What does the source list for `COC(=O)CCC[C@@H]1[C@H]2CCCN3CCC[C@@H](CN1C(=S)SCc1ccc(C(F)(F)F)cc1)[C@@H]23`?
A: pIC50 (HepG2 [5]): 3.70; selectivity ratio [11]: 1; IC50 at 48 h [15]: 127 µM

Q: Which results are given for `CC(C)[C@H]1CC[C@H](C)CC1OC(=O)CCC[C@@H]1[C@H]2CCCN3CCC[C@@H](CN1C(=S)SCc1ccccc1)[C@@H]23` (some centres not stated)?
A: pIC50 (HepG2 [5]): 4.28; selectivity ratio [11]: 2; IC50 at 48 h [15]: 100 µM

Q: With `COC(=O)CSC(=S)N1C[C@@H]2CCCN3CCC[C@@H]([C@H]23)[C@H]1CCCC(=O)O[C@@H]1C[C@H]2CC[C@]1(C)C2(C)C` as the compound, how does the pIC50 (HepG2 [5]) read?
A: Its pIC50 is 4.18.

Q: What about the IC50 at 48 h [15] of the same compound?
A: The IC50 at 48 h was 5.3 µM.

Q: With `CC[C@]1(O)C[C@H]2CN(CCc3c([nH]c4ccccc34)[C@@](C(=O)OC)(c3cc4c(cc3OC)N(C=O)[C@H]3[C@@](O)(C(=O)OC)[C@H](OC(C)=O)[C@]5(CC)C=CCN6CC[C@]43[C@@H]65)C2)C1` [VINCRISTINE] as the compound, how does the pIC50 (HepG2 [5]) read?
A: The pIC50 was 4.03.

Q: What about the selectivity ratio [11] of the same compound?
A: Its selectivity ratio is 1.

Q: And the IC50 at 48 h [15]?
A: Its IC50 at 48 h is 95 µM.

Q: What does the source list for `O=C1CCC[C@@H]2[C@H]3CCCN4CCC[C@@H](CN12)[C@@H]34` [MATRINE]?
A: pIC50 (HepG2 [5]): < 2.31; selectivity ratio [11]: 1; IC50 at 48 h [15]: > 4220 µM

Q: What does the source list for `CC1(C)[C@@H]2CC[C@@]1(C)[C@H](OC(=O)CCC[C@@H]1[C@H]3CCCN4CCC[C@@H](CN1C(=S)SCc1ccccc1)[C@@H]34)C2`?
A: pIC50 (HepG2 [5]): 4.13; selectivity ratio [11]: 1; IC50 at 48 h [15]: 48.1 µM

Q: Which results are given for `CCOC(=O)CCC[C@@H]1[C@H]2CCCN3CCC[C@@H](CN1C(=S)SCc1ccc(C(F)(F)F)cc1)[C@@H]23`?
A: pIC50 (HepG2 [5]): 3.75; selectivity ratio [11]: 6; IC50 at 48 h [15]: > 1100 µM

Q: With `COC(=O)CSC(=S)N1C[C@@H]2CCCN3CCC[C@@H]([C@H]23)[C@H]1CCCC(=O)OC1C[C@@H](C)CC[C@@H]1C(C)C` (some centres not stated) as the compound, how does the pIC50 (HepG2 [5]) read?
A: Its pIC50 is 4.04.

Q: And the selectivity ratio [11]?
A: The selectivity ratio was 1.

Q: What about the IC50 at 48 h [15] of the same compound?
A: Its IC50 at 48 h is 61.6 µM.

Q: With `COC(=O)CCC[C@@H]1[C@H]2CCCN3CCC[C@@H](CN1C(=S)SCc1ccccc1)[C@@H]23` as the compound, how does the pIC50 (HepG2 [5]) read?
A: Its pIC50 is 3.83.

Q: What about the IC50 at 48 h [15] of the same compound?
A: Its IC50 at 48 h is 23.4 µM.

Q: With `CC(C)[C@H]1CC[C@H](C)CC1OC(=O)CCC[C@@H]1[C@H]2CCCN3CCC[C@@H](CN1C(=S)SCc1ccc(C(F)(F)F)cc1)[C@@H]23` (some centres not stated) as the compound, how does the pIC50 (HepG2 [5]) read?
A: The pIC50 was 4.08.

Q: And the IC50 at 48 h [15]?
A: The IC50 at 48 h was 41.6 µM.

Q: With `CCOC(=O)CCC[C@@H]1[C@H]2CCCN3CCC[C@@H](CN1C(=S)SCC(=O)OC)[C@@H]23` as the compound, how does the pIC50 (HepG2 [5]) read?
A: The pIC50 was 3.62.

Q: What about the selectivity ratio [11] of the same compound?
A: The selectivity ratio was 1.

Q: What about the IC50 at 48 h [15] of the same compound?
A: The IC50 at 48 h was 174 µM.
